Columns and labels:
SW480 cells [1] = assay: Colony formation, SW480 cells; assay type: cell-based, human; conditions: 0 to 32 μM for 24 h, then 10 days
Method: SW620 and SW480 cells were seeded in 6-well plates (1000 cells per well) and cultured in RPMI-1640 medium containing 10% FBS overnight. After the cells treatment with DMSO or compound ID-11 (4, 8, 16, and 32 μM) for 24 h, the culture medium was replaced by fresh RPMI-1640 medium (containing 10% FBS) and continue culturing for another 10 days. Then the cells were washed with PBS and fixed with methanol for 15 min and stained with 0.1% crystal violet for another 30 min. Finally, the cells were washed with running water, air-dried and visualised by photographing.

SW480 cells [2] = assay: Quantitative RT-PCR, SW480 cells; assay type: cell-based, human; conditions: SW480, 0 to 24 μM, 24 h, qRT-PCR
Method: (§1) Cells (50,000 cells per well) incubated in 6-well plates were treated with compound ID-11 for 24 h. After that, the total RNA was extracted using Total RNA Extraction Reagent (Invitrogen, USA) according to the manufacturer’s instructions and quantified with NanoDrop 2000 (Nanodrop, USA). Then the cDNA was synthesized from total RNA using High-Capacity cDNA Reverse Transcription Kit (Applied Biosystems, USA). The SYBR Green Master reagents (Applied Biosystems, USA) was used to determine the relative expression of mRNA level by quantitative real-time PCR (qRT-PCR). The primer sequences are shown below.

SW620 cells [3] = assay: Annexin V-FITC/PI apoptosis analysis, SW620 cells; assay type: cell-based, human; conditions: SW620, 16 μM, 24 h
Method: Cell apoptosis was determined using Annexin V-FITC/PI Apoptosis Detection Kit (BD Biosciences, New Jersey, USA) in according with manufacturer's instruction. Briefly, cells were cultured in 6-well plates (40 000 cells per well) till reaching logarithmic growth phase and then treatment with DMSO or compound ID-11 (8 or 16 μM) for 24 h. Afterwards, the cells were harvested, washed with PBS for twice and stained with 100 μL of the mixture of Annexin V/FITC and PI in binding buffer (v/v, 5: 5: 100) in the darkness for 30 min. Another 200 μL binding buffer was added before detection. The apoptotic cells were then analysed by FACS Calibur flow cytometry immediately.

SW620 cells [4] = assay: Quantitative RT-PCR, SW620 cells; assay type: cell-based, human; conditions: SW620, 0 to 24 μM, 24 h, qRT-PCR
Method: as §1

BRD4 (BD1) = biological target: T1, BRD4 (BD1) (Homo sapiens, UniProt O60885); assay: HTRF assay BRD4 (BD1); assay type: binding
T1 construct: purchased Reaction Biology Corp. RD-11-157
Method: In brief, compounds were serially diluted in Echo plate according to the plate map and DMSO’s final fraction is 0.1%. Then, transferring compounds and DMSO to 384-well assay plate by Echo. After that, 2× Protein and Peptide Mix was added to the assay plate and 2× Detection Mix was then added to assay plate and shook for 30 s. After incubating the plate at room temperature for 1.5 h, the HTRF signals (Excitation wavelength at 340 nm, Emission wavelength at 615 & 665 nm) was read on EnVision (PerkinElmer, UK). (+)-JQ1 (BPS Bioscience, Cat. No. 27402) was used as a positive control. BRD4-1 (RD-11–157) and BRD4-2 (RD-11–158) were purchased from Reaction Biology Corp. (PENN, USA). For Curve fitting, the inhibition values was calculated in Excel using Equation (1): Inhibition %=(Max-Signal)/(Max-Min)*100, and the IC50 values was calculated in XL-Fit using Equation (2): Y = Bottom + (Top-Bottom)/(1+(IC50/X)[…]), Y is %inhibition and X is compound concentration.

SW620 cells [5] = assay: Western blot assay, SW620 cells; assay type: cell-based, human; conditions: 24 h
Method: Cells were cultured in 6-well plates at a density of 40,000 cells per well overnight, and then exposed to selected compounds at different concentrations for 24 h. Subsequently, the cells were lysed in lysate buffer containing 50 mM Tris-HCl (PH 6.8), 2% SDS, 0.1% bromophenol blue, 1.5% DTT, 10% glycerol. The total protein extracts were boiled, sonicated, separated by 10–12% SDS-PAGE gels and transferred to polyvinylidene fluoride (PVDF) membranes. Then the membranes were blocked with 5% non-fat milk at room temperature for 1 h and incubated with primary antibodies at 4 °C overnight. After that, membranes were washed with 1× TBST for three times and incubated with secondary antibody at room temperature for 2 h. Finally, after washing with 1× TBST for three times, the bolts were visualised by an enhanced chemiluminescence kit (Beyotime, China) using the Amersham Imager 600 system (GE Healthcare Life Science, Shanghai, China).

SW480 cells [6] = assay: MTS cell viability assay, SW480 cells; assay type: cell-based; conditions: Homo sapiens, 72 h
Description: Human colorectal cancer cell lines including RKO, SW620 and SW480 were purchased from Chinese Academy of Sciences, a typical cell library culture preservation committee (Shanghai, China). Normal human colon epithelial cell line NCM460 was purchased from ATCC (Washington, DC, USA). RPMI-1640 medium (12633020), foetal bovine serum (FBS, 26170043), penicillin-streptomycin (10378016) and phosphate buffered saline (PBS, 70011044) were purchased from Gibco (Eggenstein, Germany). 5-Fluorouracil (5-FU, E0201010050, purity ≥98%) was purchased from Energy Chemical (Shanghai, China). Dimethyl sulfoxide (DMSO, 41639) was obtained from Sigma-Aldrich (St. Louis, MO). 3–(4,5-dimethylthiazol-2-yl)-5–(3-carboxymethoxyphenyl)-2–(4-sulfophenyl)-2H-tetrazolium (MTS, G1111) was purchased from Promega (Madison, WI, USA). All cell lines were cultured in RPMI-1640 medium supplemented with 10% FBS, penicillin (100 units/mL) and streptomycin ([…]) at 37 °C in a humidified atmosphere containing 5% CO2.
Cell viability was measured via MTS assay. RKO, SW620, SW480 and NCM460 cells were seeded in 96-well plates at a density of 5000 cells per well for 24 h. After treatment with the test compounds at indicated concentration for another 48 h or 72 h at 37 °C, MTS solution was added to each well and incubated for another 30 min at 37 °C. Then, the absorbance at 490 nm was measured by a BioTek Synergy H4 microplate Reader (Vermont, USA). The IC50 values were calculated with Graphpad 7.0 software packages.

In the case of O=c1ccc2cc(CSC(=S)n3ccnc3)ccc2o1 [ID-11, (2-Oxo-2H-chromen-6-yl)methyl 1H-imidazole-1-carbodithioate], the colony formation (SW480 cells [1]) is reported as “effectively inhibited”, the “mRNA relative expression level of Bcl-2” value (SW480 cells [2]) is reported as “also decreased in a concentration dependent way” and the “mRNA relative expression level of c-Myc” value (SW480 cells [2]) is reported as “also decreased in a concentration dependent way”. The total apoptosis rate (SW620 cells [3]) was 73.31%, the “mRNA relative expression level of Bcl-2” value (SW620 cells [4]) was “also decreased in a concentration dependent way” and the “mRNA relative expression level of c-Myc” value (SW620 cells [4]) was “also decreased in a concentration dependent way”. The inhibition at 10 µM (BRD4 (BD1); 10 μM, read-out: Inhibitory rate at 10 μM, BRD4 (BD1)) was 68.9%, the IC50 (BRD4 (BD1); mean ± SD of three independent experiments) was 7.8 ± 2.2 µM and the “expression level of cdc2” value (SW620 cells [5]; SW620, 0 to 16 μM) was “decreased in a concentration-dependent way”. The “expression level of cleaved PARP” value (SW620 cells [5]; SW620, 0 to 16 μM) was “increased in a dose-dependent way”, the “expression level of cyclin B1” value (SW620 cells [5]; SW620, 0 to 16 μM) was “decreased in a concentration-dependent way” and the “protein expression level of Bcl-2” value (SW620 cells [5]; SW620, 0 to 24 μM) was “decreased”. The “protein expression level of c-Myc” value (SW620 cells [5]; SW620, 0 to 24 μM) was “decreased”, the viability at 10 µM (SW480 cells [6]; 10 μM) was 20.2% and the IC50 (SW480 cells [6]) was 3.57 µM. For the same molecule, the melting point was 139.1 to 140 °C.
